Experimental data taken from PMC2360155, “Novel retinoic acid metabolism blocking agents have potent inhibitory activities on human breast cancer cells and tumour growth” (British Journal of Cancer, 2007).

Experiments:
ER-α = assay: Western immunoblotting for ER-α in MCF-7 cells; assay type: cell-based, human; settings: 1–10 μM, 6 days, dose-dependent
Description: At the end of the treatment, cells were scrapped and collected by washing with ice-cold PBS in a centrifuge tube. Cells were centrifuged at 2500 r.p.m. for 10 min, the pellet was again washed with ice-cold PBS and centrifuged. The cell pellet was then suspended in chilled cell lysis buffer (0.1 M Tris–HCl, 0.5% Triton X-100, protease inhibitor cocktail) and sonicated on ice for 10–15 s. The homogenate was kept on ice for 30 min and then centrifuged at 13 000 r.p.m. for 30 min. The supernatant was used as cell lysate. The cell lysates were stored at −80°C. Protein concentration of the cell lysates was determined using Bio-Rad protein assay reagents.
Protein lysates from MCF-7 and T47D cells were subjected to sodium dodecyl sulphate–polyacrylamide gel electrophoresis (SDS–PAGE) and immunoblotted for different proteins. […] Immunoreactive bands were visualised using the enhanced chemiluminescence detection reagents and analysis system (Amersham Bioscences) according to the manufacturer's instructions and quantified by densitometry using ImageQuant software version 5.
Figure 4 Western immunoblotting analysis of whole-cell lysates of treated MCF-7 cells for the expression of ER-α. […] Numbers below the blot show fold increase in expression of the protein as analysed by ImageQuant densitometry analysis. […]

CRABPI = target: T1, CRABPI (Mus musculus, UniProt P62965); assay: CRABP competition binding assay, CRABPI; settings: competition with [3H]-all-trans-RA; read-out: CRAPBI IC50
T1 construct: Wild-type full-length cDNAs for mouse CRABPI and CRABPII were subcloned into the prokaryotic expression vector pRSETB; pRSETB vector fusion leader (purified on Ni-NTA, so a His tag); made in house; host or cells: Escherichia coli BL21(DE3)pLys
Description: IC50 values were calculated as described above in the RAR binding studies.

RARβ = target: T2, RARβ (Mus musculus, UniProt P22605); assay: Transactivation assay (RARE-CAT reporter, CV-1 cells), RARβ; assay type: cell-based; settings: 50% of maximal activity obtained with 10^−6 M all-trans-RA
T2 construct: expressed in transfected cells; host or cells: CV-1 cells
T2 sequence (P22605 1-448 isoform P22605-3): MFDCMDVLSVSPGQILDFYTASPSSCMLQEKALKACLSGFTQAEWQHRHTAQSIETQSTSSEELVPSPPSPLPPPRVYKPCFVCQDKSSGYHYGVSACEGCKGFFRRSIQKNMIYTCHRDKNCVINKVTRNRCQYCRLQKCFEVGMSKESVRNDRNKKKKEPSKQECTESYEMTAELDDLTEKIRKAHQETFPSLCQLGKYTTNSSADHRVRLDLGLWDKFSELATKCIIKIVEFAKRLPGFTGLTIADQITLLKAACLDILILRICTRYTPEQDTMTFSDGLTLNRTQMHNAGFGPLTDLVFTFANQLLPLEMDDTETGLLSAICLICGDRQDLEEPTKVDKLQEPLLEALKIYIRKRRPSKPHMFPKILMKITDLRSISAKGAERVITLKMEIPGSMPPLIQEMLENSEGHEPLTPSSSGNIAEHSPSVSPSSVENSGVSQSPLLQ
Description: Briefly, CV-1 cells were cotransfected with 4 μg RAR subtype (RARα, RARβ or RARγ) expression vector construct in pSG5, 4 μg RARE-CAT reporter DNA and 1 μg pCMV-β-gal DNA. Twenty-four hours following transfection, the cells were treated with various concentrations of each RAMBA ranging from 10^−11–10^−5 M along with an ethanol carrier control. Additional cells were treated with 10^−6 M all-trans-RA for normalisation. Twenty-four hours later, the cells were harvested and CAT and β-gal activities were assayed.

MCF-7 tumour xenografts = assay: In vivo antitumour study, established MCF-7 tumour xenografts; settings: for Reduction in mean tumour volume compared with vehicle control / Reduction in mean tumour volume compared with the ATRA group (10 mg kg^−1 day^−1): 6 weeks; for Antitumour effect relative to ATRA / 4-HPR (33.0 μmol kg^−1 day^−1), in words: VN/14-1 16.5 μmol kg^−1 day^−1, VN/66-1 66.0 μmol kg^−1 day^−1
Description: All the animal studies were performed according to the guidelines and approval of the Animal Care Committee of the University of Maryland, School of Medicine. Ovariectomised female athymic nude 4–6-week-old mice were used. […] Ovariectomised mice were then inoculated with MCF-7 cells (2 × 10^6 cells in Matrigel per tumour growth site) subcutaneously (s.c.) on the right and left flank. Tumour volumes were measured weekly with calipers. […] Retinoic acid metabolism blocking agents were formulated in 0.3% HPC (hydroxy propyl cellulose). […] Compounds were injected continuously for three days with a drug holiday of one day after every 3 days of treatment. Twice per week, the mice were weighed and tumours were measured using a caliper. Tumour volume was calculated according to the formula 4/3πr1^2r2 (r1<r2). The tumour treatment study was continued for 6 weeks. At the end of 6 weeks, mice were killed and blood plasma, as well as tumours, were collected, weighed and stored at −80°C until analysis.
Female ovariectomised nude mice bearing established MCF-7 tumour xenografts (200–300 mm^3) were grouped so that the mean tumour volume was similar for each group. […] Tumour sizes were measured twice a week after the start of treatment.
Ovariectomised female athymic nude 4–6-week-old mice were used. Oestrogen pellets (1.7 mg per pellet, 90 day release obtained from Innovative Research of America) were implanted in the mice using a trochar to facilitate tumour growth. Mice were then inoculated with MCF-7 cells (2 × 10^6 cells in Matrigel per tumour growth site) s.c. on the right and left flank. Tumours were allowed to grow for about 4–5 weeks till they were of measurable size (200–300 mm^3). The mice were then grouped as control and treatment groups. Twice every week the mice were weighed and tumours were measured using a caliper. Tumour volume was calculated according to the formula 4/3πr1^2r2 (r1<r2). The tumour treatment study was continued for 6 weeks. […] Mice were weighed twice every week during the 6-week antitumour study.

T1 sequence (P62965 whole entry, the tested form may be a part): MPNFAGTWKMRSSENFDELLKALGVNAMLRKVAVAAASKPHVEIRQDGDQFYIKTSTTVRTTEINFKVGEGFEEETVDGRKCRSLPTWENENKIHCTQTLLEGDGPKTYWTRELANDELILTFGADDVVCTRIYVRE

Structure (SMILES)	Increase in expression of ER-α (ER-α)	IC50 (CRABPI) [µM]	EC50 (RARβ) [µM]	Reduction in mean tumour volume compared with vehicle control (MCF-7 tumour xenografts; 16.5 μmol kg^−1 day^−1 s.c.) [%]	Reduction in mean tumour volume compared with the ATRA group (10 mg kg^−1 day^−1) (MCF-7 tumour xenografts; 33.0 μmol kg^−1 day^−1 s.c.) [%]	Reduction in mean tumour volume compared with vehicle control (MCF-7 tumour xenografts; 33.0 μmol kg^−1 day^−1 s.c.) [%]	Reduction in mean final tumour weight compared with mice receiving vehicle alone (MCF-7 tumour xenografts; 66.0 μmol kg^−1 day^−1) [%]	Reduction in mean tumour volume compared with the ATRA group (10 mg kg^−1 day^−1) (MCF-7 tumour xenografts; 66.0 μmol kg^−1 day^−1 s.c.) [%]	Reduction in mean tumour volume compared with vehicle control (MCF-7 tumour xenografts; 66.0 μmol kg^−1 day^−1 s.c.) [%]	Antitumour effect relative to ATRA / 4-HPR (33.0 μmol kg^−1 day^−1), in words (MCF-7 tumour xenografts)	Tumour regression in the antitumour efficacy studies (MCF-7 tumour xenografts; mouse, in vivo)
CC1=C(/C=C/C(C)=C/C=C/C(C)=C/C(=O)O)C(C)(C)CCC1 [ATRA, all-trans-retinoic acid, reference compound]	from two- to eight-fold										
CC1=C(/C=C/C(C)=C/C=C/C(C)=C/C(=O)O)C(C)(C)CCC1n1ccnc1 (stereo not shown) [VN/14-1]	from four- to six-fold	> 0.5	1.5	66.5	45	79.4	92.6	75.61	92.6	comparable with the antitumour effect of ATRA or 4-HPR	did not cause any tumour regressions
CC1=C(/C=C/C(C)=C/C=C/C(C)=C/C(=O)Nc2ccc(O)cc2)C(C)(C)CCC1n1ccnc1 (stereo not shown) [VN/66-1]		> 0.5								not better than ATRA	
CC1=C(/C=C/C(C)=C/C=C/C(C)=C\C(=O)Nc2ccc(O)cc2)C(C)(C)CCC1n1ccnc1 (stereo not shown) [VN/69-1]		> 0.5	> 10								
